How the values were obtained:
[1] = Antiviral activity against Influenza A virus (A/California/07/2009(H1N1)) infected in MDCK cells expressing M2 S31N mutant after overnight incubation by fluorescence-based miniplaque assay; type: functional, cell-based
Influenza A virus [2] = experiment: Antiviral activity against Influenza A virus (A/Puerto Rico/8/34(H1N1)) infected in MDCK cells expressing M2 V27T/S31N mutant after overnight incubation by fluorescence-based miniplaque assay; type: functional, organism-based, A/Puerto Rico/8/1934(H1N1)
Influenza A virus [3] = experiment: Antiviral activity against Influenza A virus A/WS/33(H1N1) infected in MDCK cells expressing M2 S31N mutant after overnight incubation by fluorescence-based miniplaque assay; type: functional, organism-based
[4] = tested on: Matrix protein 2 (Influenza A virus (A/Udorn/307/1972(H3N2))), P0DOF8 [S31N]; type: cell-based; details: Influenza A virus (A/California/08/2009(H1N1)); HEK293; 100 uM

CC(N)C12CC3CC(CC(C3)C1)C2 (stereo not given) [RIMANTADINE]
EC50 [1]: 110 µM
EC50 (Influenza A virus [2]): 3.3 µM
EC50 (Influenza A virus [3]): 310 µM

NC12CC3CC(CC(C3)C1)C2 [AMANTADINE]
EC50 [1]: 240 µM
EC50 (Influenza A virus [2]): 24 µM
EC50 (Influenza A virus [3]): 24 µM

CCCCC1(N)C2CC3CC(C2)CC1C3 (stereo not given)
EC50 [1]: 8.5 µM
EC50 (Influenza A virus [2]): 0.3 µM
EC50 (Influenza A virus [3]): 355 µM

CCCC1(N)C2CC3CC(C2)CC1C3 (stereo not given)
Activity [4]: 9.4%
EC50 [1]: 4.7 µM
EC50 (Influenza A virus [2]): 0.5 µM
EC50 (Influenza A virus [3]): 390 µM

CC(C)CC1(N)C2CC3CC(C2)CC1C3 (stereo not given)
EC50 [1]: 8 µM
EC50 (Influenza A virus [2]): 0.3 µM
EC50 (Influenza A virus [3]): 210 µM

CCC1(N)C2CC3CC(C2)CC1C3 (stereo not given)
EC50 [1]: 25 µM
EC50 (Influenza A virus [2]): 1.8 µM
EC50 (Influenza A virus [3]): 23 µM

CCCCCCC1(N)C2CC3CC(C2)CC1C3 (stereo not given)
EC50 [1]: 0.13 µM
EC50 (Influenza A virus [2]): 0.07 µM
EC50 (Influenza A virus [3]): 13 µM

NC1C2CC3CC(C2)CC1C3 (stereo not given)
Activity [4]: 16%
EC50 [1]: 150 µM
EC50 (Influenza A virus [2]): 3.8 µM
EC50 (Influenza A virus [3]): 110 µM

NC1(Cc2ccccc2)C2CC3CC(C2)CC1C3 (stereo not given)
EC50 [1]: 8.6 µM
EC50 (Influenza A virus [2]): 1.2 µM
EC50 (Influenza A virus [3]): 280 µM

CC1(N)C2CC3CC(C2)CC1C3 (stereo not given)
EC50 [1]: 54 µM
EC50 (Influenza A virus [2]): 0.4 µM
EC50 (Influenza A virus [3]): 19 µM

NC1(c2ccccc2)C2CC3CC(C2)CC1C3 (stereo not given)
EC50 [1]: 21 µM
EC50 (Influenza A virus [2]): < 0.3 µM
EC50 (Influenza A virus [3]): 86 µM
